Results taken from patent publication US10245255B2, “Compositions and methods for the treatment of obesity and related disorders” (THE REGENTS OF THE UNIVERSITY OF MICHIGAN, priority 2011, dated 2019).
“Also recorded” adds a separate entry of the source.

System: RAW264.7 cells
Assay: RAW264.7 cells stimulated with LPS or poly I:C: phosphorylation (immunoblot)
Type: cell-based
Details: for LPS or poly I:C-stimulated phosphorylation of IRF3: LPS 0.5 μg/ml or poly I:C 50 μg/ml; for phosphorylation of TBK1 on serine 172: LPS or poly I:C stimulated
Procedure: 3T3-L1 fibroblasts (American Type Culture Collection, Manassas, Va.) were cultured and differentiated using standard methods known in the art. […] 3T3-L1 adipocytes were serum starved with 0.5% fetal bovine serum (FBS) in Dulbecco's modified eagle medium (DMEM) prior to treatment. TNFα treatments (50 ng/mL unless otherwise noted) were performed during the 24 hour prior to harvest, after pretreatment with IKKβ inhibitor compound VIII (EMD Biosciences, Philadelphia, Pa.) for 1 hour where indicated. […] Cells were treated with or without 10 nM of insulin for 15 minutes. RAW264.7 cells were serum starved with 0.5% FBS DMEM media and pre-treated with or without Cay-10576 (Cayman Chemical, Ann Arbor, Mich.). The cells were then treated with LPS (0.5 μg/ml) or poly I:C (50 μg/ml) for 1 hour. Cells were harvested for total RNA and analyzed by real-time PCR Cell lysates were resolved on SDS-PAGE and analyzed by immunoblot using the indicated antibodies.

COc1cc2ncn(-c3cc(OCc4ccccc4S(C)(=O)=O)c(C#N)s3)c2cc1OC [Cay-10576]
LPS or poly I:C-stimulated phosphorylation of IRF3: blocked
LPS or poly I:C-stimulated phosphorylation of IRF3 (listed as cayman): reverses
phosphorylation of TBK1 on serine 172: stimulated
phosphorylation of TBK1 on serine 172 (listed as cayman): inducing
IKKβ phosphorylation (listed as cayman): increased; also recorded: inducing
